# The PolyMetriX glass transition set
# ± gives the standard deviation of the reports.
row,Compound,glass transition temperature [°C]
1,*CC(*)c1ccc2c(c1)OCO2 (repeat unit),138.00
2,*Oc1ccc(NC(=O)c2cc(-c3ccc(C(=O)O)c(C(=O)Nc4ccc(*)cc4)c3)ccc2C(=O)O)cc1 (repeat unit),184.40
3,*c1cccc(Cc2cccc(N3C(=O)c4ccc([Si](C)(C)O[Si](C)(C)c5ccc6c(c5)C(=O)N(*)C6=O)cc4C3=O)c2)c1 (repeat unit),217.00
4,*Nc1ccc(C(c2ccc(NC(=O)c3cc(NC(=O)CCCCCN4C(=O)c5ccccc5C4=O)cc(C(*)=O)c3)cc2)(C(F)(F)F)C(F)(F)F)cc1 (repeat unit),225.00
5,*CCCCCCOC(=O)C(CCCCP(=O)(O)O)C(=O)OCCCCCCOc1ccc(-n2on2-c2ccc(O*)cc2)cc1 (repeat unit),19.00
6,*CC(*)C(=O)OCCC (repeat unit) [Poly(n-propyl acrylate) ],-41.33 ± 4
7,*OC1C(COCC)OC(*)C(OCC)C1OCC (repeat unit),131.2
8,*Oc1ccc(Oc2ccc(NC(=O)c3ccc(Oc4ccc(C(C)(C)c5ccc(C(C)(C)c6ccc(Oc7ccc(C(=O)Nc8ccc(*)cc8)cc7)cc6)cc5)cc4)cc3)cc2)cc1 (repeat unit),165.00
9,*CC/C=C(/*)C(C)(C)C (repeat unit),20.00
10,*CC(*)(CC(=O)OCC)C(=O)O (repeat unit),135.00
11,*c1cccc(P(=O)(c2ccc(C(F)(F)F)cc2)c2cccc(N3C(=O)c4ccc(Oc5ccc6c(c5)C(=O)N(*)C6=O)cc4C3=O)c2)c1 (repeat unit),248.00
12,*Oc1c(OC)cc(*)cc1OC (repeat unit),174.10
13,*c1ccc(Oc2ccc(-c3ccc(Oc4ccc(N5C(=O)c6ccc(Oc7ccc(C8(c9ccc(Oc%10ccc%11c(c%10)C(=O)N(*)C%11=O)cc9)CCC(C(C)(C)C)CC8)cc7)cc6C5=O)cc4)cc3C)c(C)c2)cc1 (repeat unit),236.00
14,*CC(*)(C)C(=O)OCC1CCC1 (repeat unit),114.00
15,*Oc1ccc(C(C)(C)c2ccc(OC(=O)OCCCCCOC(*)=O)cc2)cc1 (repeat unit),49.50
16,*c1ccc(Oc2ccc(-c3ccc(-c4ccc(Oc5ccc(-c6c7c(c(*)c8ccccc68)C(=O)N(c6ccccc6)C7=O)cc5)c(C(F)(F)F)c4)s3)cc2C(F)(F)F)cc1 (repeat unit),287.00

row,Compound,glass transition temperature [°C]
1,*CC(C)(COC(=O)O*)C(=O)OCc1ccccc1 (repeat unit),-2.00
2,*CCCCCCCCOC(=O)NCCCCCCNC(=O)O* (repeat unit),58.00
3,*CC(*)C(=O)Oc1ccc(Cl)cc1 (repeat unit),330.00
4,*Nc1ccc(NC(=O)Cc2cc(C)c(CC(*)=O)cc2C)cc1 (repeat unit),175.00
5,*CC(*)C(=O)OCCSC (repeat unit),-60.00
6,*c1ccc(Oc2cccc(-n3c(=O)c4cc5c(=O)n(*)c(=O)c5cc4c3=O)c2)cc1 (repeat unit),397.00
7,*Oc1ccc(CC(NC(=O)CCc2ccc(OC(=O)CCCCC(*)=O)cc2)C(=O)OC(C)C)cc1 (repeat unit),56.50
8,*c1ccc(Oc2ccc(Oc3ccc(N4C(=O)C(c5ccccc5)=C(c5ccc(C6=C(c7ccccc7)C(=O)N(*)C6=O)cc5)C4=O)cc3)cc2)cc1 (repeat unit),267.00
9,*C(=O)Nc1ccc(Oc2ccccc2-c2ccccc2Oc2ccc(NC(=O)c3ccc4c(c3)C(=O)N(c3ccc(Oc5ccc(C(C)(C)c6ccc(Oc7ccc(N8C(=O)c9ccc(*)cc9C8=O)cc7)cc6)cc5)cc3)C4=O)cc2)cc1 (repeat unit),229.00
10,*Oc1ccc(Oc2ccc(NC(=C(C#N)C#N)c3ccc(C(Nc4ccc(*)cc4)=C(C#N)C#N)cc3)cc2)cc1 (repeat unit),255.00
11,*Nc1ccc(C(c2ccc(NC(=O)c3ccc4cc(C(*)=O)ccc4c3)cc2)(P2(=O)Oc3ccccc3-c3ccccc32)P2(=O)Oc3ccccc3-c3ccccc32)cc1 (repeat unit),241.00
12,*CCCCN1C(=O)C2C3C=CC(C4C(=O)N(*)C(=O)C34)C2C1=O (repeat unit),211.00
13,*CCC(F)(F)C(*)(F)F (repeat unit),-108.00
14,*N=P(*)(CC1COCCOCCOCCO1)OCC1COCCOCCOCCO1 (repeat unit),-40.00
15,*Cc1cc(C(C)(C)C)cc(*)c1O (repeat unit),50.00

# Now from value to compound:
row,glass transition temperature [°C],Compound
1,252.00,*Oc1ccc(C(C)(C)c2ccc(Oc3ccc(C(=O)c4c(C(=O)c5ccc(*)cc5)c(-c5ccc(F)cc5)c(-c5ccc(F)cc5)c(-c5ccc(F)cc5)c4-c4ccc(F)cc4)cc3)cc2)cc1 (repeat unit)
2,-10.00,*c1ccc(-c2cc(CCCCCCCC)c(-c3ccc(-c4ccc(-c5sc(-c6ccc([Si](CCCC)(CCCC)[Si](*)(CCCC)CCCC)s6)cc5CCCCCCCC)s4)s3)s2)s1 (repeat unit)
3,236.00,*c1ccc(Oc2ccc(N3C(=O)c4ccc(Oc5ccc(C6(c7ccc(Oc8ccc9c(c8)C(=O)N(*)C9=O)cc7)CCC(c7ccccc7)CC6)cc5)cc4C3=O)cc2)cc1 (repeat unit)
4,335.00,*Oc1ccc(C(=O)Nc2cc(NC(=O)c3ccc(*)cc3)cc(-c3nc4ccccc4[nH]3)c2)cc1 (repeat unit)
5,-38.00,*CC(*)c1ccc(COCCOCCCC)cc1 (repeat unit)
6,183.00,*c1cccc(C(F)(F)C(F)(F)C(F)(F)c2cccc(N3C(=O)c4ccc(Oc5ccc6c(c5)C(=O)N(*)C6=O)cc4C3=O)c2)c1 (repeat unit)
7,193.00 ± 8.5,*c1cccc(Oc2cccc(Oc3cccc(N4C(=O)c5ccc(Oc6ccc7c(c6)C(=O)N(*)C7=O)cc5C4=O)c3)c2)c1 (repeat unit)
8,310.00,*c1ccc(Oc2ccc(Oc3ccc(-n4c(=O)c5cc6c(=O)n(*)c(=O)c6cc5c4=O)cc3)cc2C)cc1 (repeat unit)
9,158.00,*=Nc1ccc(Cc2ccc(NC(=*)c3ccccc3)cc2)cc1 (repeat unit)
10,194.00,*Oc1ccc(C(C)(C)c2ccc(OC(=O)c3ccc(C(=O)c4ccc(C(*)=O)cc4)cc3)cc2)cc1 (repeat unit)
11,58.00,*CCCCCCCCCCC(=O)NCCc1ccc(CCNC(=O)CCCCCCCCCCS*)cc1 (repeat unit)
12,223.00,*c1ccc(Oc2ccc(C(=O)c3ccc(Oc4ccc(-c5nc(-c6ccccn6)nnc5*)cc4)cc3)cc2)cc1 (repeat unit)
13,200.00,*Oc1ccc(C2(c3ccc(Oc4nc(*)nc(OC)n4)cc3)CCCCC2)cc1 (repeat unit)
14,239.00,*c1cccc(N2C(=O)c3ccc(Oc4ccc(C(=O)c5ccc(Oc6ccc7c(c6)C(=O)N(*)C7=O)cc5)cc4)cc3C2=O)c1 (repeat unit)
15,45.60,*CC(*)C(=O)OCCCOc1ccc(/N=N/c2ccc([N+](=O)[O-])cc2)cc1 (repeat unit)
16,251.00,*c1ccc(CC(=O)Nc2ccc(NC(=O)Cc3ccc(-c4sc(*)c(-c5ccccc5)c4-c4ccccc4)cc3)cc2)cc1 (repeat unit)
17,53.00,*CC(COC(=O)O*)OCCOc1ccc(/C=C/c2ccc([N+](=O)[O-])cc2)cc1 (repeat unit)

row,glass transition temperature [°C],Compound
1,122.00,*OS(=O)(=O)c1cccc(C(=O)c2cccc(S(=O)(=O)Oc3ccc(C(C)(C)c4ccc(*)cc4)cc3)c2)c1 (repeat unit)
2,207.00,*C(=O)Nc1ccc(Oc2cccc(Oc3ccc(NC(=O)c4ccc5c(c4)C(=O)N(c4cccc(Oc6cccc(Oc7cccc(N8C(=O)c9ccc(*)cc9C8=O)c7)c6C#N)c4)C5=O)cc3)c2)cc1 (repeat unit)
3,100.00,*CC(C)(C)COC(=O)c1ccc(-c2ccc(-c3ccc(C(=O)O*)cc3)cc2)cc1 (repeat unit)
4,164.50,*Oc1ccc(Oc2ccc(OC(=O)c3cccc(C(*)=O)c3)cc2)cc1 (repeat unit)
5,103.00,*CCN(CCOC(=O)NC(C)(C)c1cccc(C(C)(C)NC(=O)O*)c1)c1ccc(/N=N/c2ccc([N+](=O)[O-])cc2)cc1 (repeat unit)
6,44.00,*Oc1cc(OC(=O)c2ccc(OCCCCC)cc2)c(OC(=O)CCCC(*)=O)cc1OC(=O)c1ccc(OCCCCC)cc1 (repeat unit)
7,335.00,*c1ccc2c(c1)C(=O)N(c1c(C)cc(C3(c4cc(C)c(N5C(=O)c6ccc(C(*)(C(F)(F)F)C(F)(F)F)cc6C5=O)c(C(C)C)c4)c4ccccc4-c4ccccc43)cc1C(C)C)C2=O (repeat unit)
8,359.00,*c1ccc(Sc2ccc(-n3c(=O)c4cc5c(=O)n(*)c(=O)c5cc4c3=O)cn2)nc1 (repeat unit)
9,37.00,*c1cc(CCCCCCOC(=O)COC)c(*)s1 (repeat unit)
10,365.00,*c1cccc(-c2nc3cc4nc(*)c(-c5ccccc5)nc4cc3nc2-c2ccccc2)c1 (repeat unit)
11,30.00,*CC1CCC(COC(C)OC(=O)c2cccc(C(=O)OC(C)O*)c2)CC1 (repeat unit)
12,53.00,*CC(*)(C)C(=O)OCCN(CCCC)c1ccc(/N=N/c2ccc(S(=O)(=O)Nc3nccs3)cc2)cc1 (repeat unit)
13,-18.00,*CC(C)(CO*)COCCOCCOCCOC (repeat unit)
14,281.00,*C(=O)Nc1ccc(Oc2ccc(NC(=O)c3ccc4c(c3)C(=O)N(c3ccc(S(=O)(=O)c5ccc(N6C(=O)c7ccc(*)cc7C6=O)cc5)cc3)C4=O)cc2)cc1 (repeat unit)
15,7.50,*O[Si](C)(C)CCC/N=C1\c2ccccc2/C(=N\CCC[Si](*)(C)C)c2c(O)ccc(O)c21 (repeat unit)
16,167.50,*CC(O)COc1ccc(S(=O)(=O)c2ccc(O*)cc2)cc1 (repeat unit)
17,-55.00,*O[Si](C)(CCC(F)(F)C(F)(F)C(F)(F)C(F)(F)C(F)(F)C(F)(F)F)O[Si](C)(C)c1ccc([Si](*)(C)C)cc1 (repeat unit)
